Experimental data from patent US20180110871A1, “DUAL DISULFIDE DRUG CONJUGATES” (ENDOCYTE, INC., priority 2015, published 2018).

What was measured:
KB cells = experiment: In vitro activity in KB cells (3H-thymidine incorporation); format: cell-based; conditions: 3H-thymidine incorporation relative to untreated controls
Description: Cells were seeded in 24-well Falcon plates and allowed to form nearly confluent monolayers overnight. After one rinse with 1 mL of fresh FFRPMI/HIFCS, each well received 1 mL, of medium containing increasing concentrations of test agent (3 wells per sample). Cells were pulsed with targeted agents for 2 hr at 37° C., rinsed 4 times with 0.5 mL of medium, and then chased in 1 mL of fresh medium up to 70 hr. Cells were treated with non-targeted agent EC0347 for a continuous 72 h. Spent medium was aspirated from all wells and replaced with fresh medium containing 5 μCi/mL ^3H-thymidine. After a further 2 hr 37° C. incubation, cells were washed 3 times with 0.5 mL of PBS and then treated with 0.5 mL of ice-cold […] per well. After 15 min, the trichloroacetic acid was aspirated and the cell material solubilized by the addition of 0.5 mL of 0.25 N sodium hydroxide for 15 min. Four hundred and fifty microliters of each solubilized sample were transferred to scintillation vials containing 3 mL of Ecolume scintillation cocktail and then counted in a liquid scintillation counter. Final tabulated results were expressed as the percentage of ^3H-thymidine incorporation relative to untreated controls and IC50 values calculated using Graphpad Prism software.

subcutaneous KB tumors = experiment: Antitumor activity in KB tumor model; format: in vivo, Female Balb/c nu/nu mice; conditions: FIG. 1; 2 μmol/kg, single-dose; n=5; mice with subcutaneous KB tumors
Description: Female Balb/c nu/nu mice were fed ad libitum with folate-deficient chow (Harlan diet #TD01013) for the duration of the experiment. KB tumor cells were inoculated subcutaneously at the right flank of each mouse. Mice were dosed after the tumors have reached a range of 107-152 mm^3 through the lateral tail vein under sterile conditions in a volume of 200 μL of phosphate-buffered saline (PBS).
Growth of each s.c. tumor was followed by measuring the tumor two times per week. Tumors were measured in two perpendicular directions using Vernier calipers, and their volumes were calculated as 0.5×L×W^2, where L=measurement of longest axis in mm and W=measurement of axis perpendicular to L in mm.

Structure (SMILES) | IC50 (KB cells; Homo sapiens, non-targeted agent, continuous 72 h) | cure (number of mice) (subcutaneous KB tumors) | IC50 (KB cells; targeted agents pulsed 2 hr at 37° C., chased up to 70 hr)
CCCC(=O)OCN(C(=O)[C@@H](NC(=O)[C@H]1CCCCN1C)C(C)CC)[C@H](C[C@@H](OC(C)=O)c1nc(C(=O)N[C@@H](Cc2ccc(O)cc2)C[C@H](C)C(=O)NN)cs1)C(C)C (stereo partly drawn) [EC0347, Tubulysin B Hydrazide, reference compound] | 1.5 nM | – | –
C#CCN(Cc1ccc2nc(N)[nH]c(=O)c2c1)c1ccc(C(=O)N[C@@H](CCC(=O)OCCSSC[C@H](NC(=O)[C@H](CCC(=O)NC[C@H](O)[C@@H](O)[C@H](O)[C@H](O)CO)NC(=O)[C@H](CCC(=O)O)NC(=O)[C@H](CCC(=O)NC[C@H](O)[C@@H](O)[C@H](O)[C@H](O)CO)NC(=O)[C@H](CCC(=O)O)NC(=O)[C@H](CCC(=O)NC[C@H](O)[C@@H](O)[C@H](O)[C@H](O)CO)NC(=O)CCSSCCOC(=O)NNC(=O)[C@@H](C)C[C@H](Cc2ccc(O)cc2)NC(=O)c2csc([C@@H](C[C@H](C(C)C)N(COC(=O)CCC)C(=O)[C@@H](NC(=O)[C@H]3CCCCN3C)C(C)CC)OC(C)=O)n2)C(=O)O)C(=O)O)cc1 (stereo partly drawn) [EC2133] | – | 1 | 0.8 nM
